In patent US12275745B2, “Therapeutic compounds and methods of use” (Genentech, Inc., priority 2021, dated 2025):
Read-outs that look alike come from different tables or passages of the source.

Assays:
[1] = target: TEAD4 (Homo sapiens, UniProt Q15561); assay: TR-FRET (Lipid HTRF) TEAD lipid pocket probe displacement assay, TEAD4; assay type: binding; details: His-tagged TEAD4, biotinylated lipid pocket probe, 4 hours
[2] = target: TEAD1 (Homo sapiens, UniProt P28347); assay: TR-FRET (Lipid HTRF) TEAD lipid pocket probe displacement assay, TEAD1; assay type: binding; details: His-tagged TEAD1, biotinylated lipid pocket probe, 4 hours
Description: (§1) His-tagged TEAD proteins are pre-incubated with TEAD project compounds for 30 minutes or 4 hours at room temperature. Biotinylated lipid pocket probes are then added to the TEAD/Compound mixture and incubated for 60 minutes at room temperature. The lipid pocket probe competes with the test compound for the TEAD lipid pocket until equilibrium is reached. After 60 minutes, Europium labelled anti-His (Perkin Elmer #AD0110) and XL665 labelled streptavidin (CIS Bio 610SAXAC) are added to the TEAD/test compound/lipid pocket mixture and incubated for 30 minutes or 4 hours. TR-FRET values are then measured using an EnVision multi-label plate reader (Perkin Elmer Cat #2104-001 0A.) If the lipid pocket probe binds to TEAD as expected, a TR-FRET signal results from the proximity of anti-His Eu and XL665. If a TEAD lipid pocket binder such as binds and displaces the lipid pocket probe, the disruption of the TEAD:probe interaction results in a decrease in TR-FRET signal. The potency of compounds as TEAD lipid pocket binders is determined by IC50 value generated using a non-linear 4 parameter curve fit.

[3] = target: TEAD3 (Homo sapiens, UniProt Q99594); assay: TR-FRET (Lipid HTRF) TEAD lipid pocket probe displacement assay, TEAD3; assay type: binding; details: His-tagged TEAD3, biotinylated lipid pocket probe, 4 hours
[4] = target: T1, TEAD2 (Homo sapiens, UniProt Q15562);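 note: TR-FRET competition assay with His-tagged TEAD protein and a biotinylated lipid pocket probe, where probe displacement by compound lowers the signal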
Description: as §1

[5] = target: T1, TEAD2; assay: biochemical
Description: as §1

TEAD1, sequence (P28347 whole entry, species assumed): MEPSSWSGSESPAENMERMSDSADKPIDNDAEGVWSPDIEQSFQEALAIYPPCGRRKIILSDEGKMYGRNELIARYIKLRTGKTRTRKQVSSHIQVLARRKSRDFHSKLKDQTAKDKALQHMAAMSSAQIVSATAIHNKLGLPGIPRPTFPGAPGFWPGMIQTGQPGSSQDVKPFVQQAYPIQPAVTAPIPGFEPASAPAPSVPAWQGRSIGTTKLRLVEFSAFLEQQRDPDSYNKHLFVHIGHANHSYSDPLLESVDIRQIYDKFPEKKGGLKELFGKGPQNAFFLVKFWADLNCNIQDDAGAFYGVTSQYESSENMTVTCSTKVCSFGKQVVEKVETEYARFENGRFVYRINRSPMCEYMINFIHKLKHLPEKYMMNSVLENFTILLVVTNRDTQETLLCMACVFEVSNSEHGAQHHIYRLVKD
TEAD4, sequence (Q15561 whole entry, species assumed): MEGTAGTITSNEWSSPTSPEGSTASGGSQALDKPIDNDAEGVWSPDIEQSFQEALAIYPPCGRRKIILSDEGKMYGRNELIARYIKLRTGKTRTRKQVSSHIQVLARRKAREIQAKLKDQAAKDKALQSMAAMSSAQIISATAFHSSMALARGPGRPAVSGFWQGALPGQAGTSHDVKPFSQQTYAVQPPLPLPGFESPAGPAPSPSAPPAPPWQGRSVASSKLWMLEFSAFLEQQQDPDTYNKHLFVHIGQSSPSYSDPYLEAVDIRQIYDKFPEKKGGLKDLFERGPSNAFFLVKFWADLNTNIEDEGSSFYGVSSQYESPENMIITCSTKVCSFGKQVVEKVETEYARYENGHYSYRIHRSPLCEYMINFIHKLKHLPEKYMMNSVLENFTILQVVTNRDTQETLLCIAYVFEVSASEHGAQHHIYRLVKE
TEAD3, sequence (Q99594 whole entry, species assumed): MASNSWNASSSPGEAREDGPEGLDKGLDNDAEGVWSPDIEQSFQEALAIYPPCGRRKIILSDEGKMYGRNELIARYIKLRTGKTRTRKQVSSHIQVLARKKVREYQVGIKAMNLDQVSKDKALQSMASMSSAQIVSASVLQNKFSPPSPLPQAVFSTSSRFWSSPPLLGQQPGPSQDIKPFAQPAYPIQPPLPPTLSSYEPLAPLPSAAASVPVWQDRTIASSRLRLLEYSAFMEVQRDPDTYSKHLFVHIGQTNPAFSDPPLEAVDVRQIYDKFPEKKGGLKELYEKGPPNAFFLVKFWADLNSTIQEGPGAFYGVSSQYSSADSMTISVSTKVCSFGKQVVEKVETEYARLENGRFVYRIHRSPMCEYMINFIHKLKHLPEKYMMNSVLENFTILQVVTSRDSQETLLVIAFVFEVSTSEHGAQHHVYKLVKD
T1 sequence (Q15562 whole entry, species assumed): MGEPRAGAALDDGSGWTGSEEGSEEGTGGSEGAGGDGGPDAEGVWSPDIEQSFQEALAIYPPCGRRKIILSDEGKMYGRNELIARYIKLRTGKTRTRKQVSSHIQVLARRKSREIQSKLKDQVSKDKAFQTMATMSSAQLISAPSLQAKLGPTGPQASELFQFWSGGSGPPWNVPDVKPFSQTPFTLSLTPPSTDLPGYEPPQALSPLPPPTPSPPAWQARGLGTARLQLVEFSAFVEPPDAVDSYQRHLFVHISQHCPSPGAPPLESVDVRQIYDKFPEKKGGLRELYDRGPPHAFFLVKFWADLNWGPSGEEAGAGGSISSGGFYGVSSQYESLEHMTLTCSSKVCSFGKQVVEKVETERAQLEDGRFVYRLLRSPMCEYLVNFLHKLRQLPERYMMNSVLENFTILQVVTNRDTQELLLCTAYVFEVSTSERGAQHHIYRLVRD

SMILES	IC50 [1] [nM]	IC50 [2] [nM]	IC50 [3] [nM]	IC50 [4] [nM]	IC50 [5] [nM]
C=CC(=O)NCc1cc(-c2ccc(OC(F)(F)F)cc2)c2ncn(C)c2c1C#CCO [Compound 58, N-[[4-(3-hydroxyprop-1-ynyl)-3-methyl-7-[4-(trifluoromethoxy)phenyl]benzimidazol-5-yl]methyl]prop-2-enamide]	3.5	6.9	93	6	
C=CC(=O)NCc1cc(-c2ccc(OC(F)(F)F)cc2)c2ncn(C)c2c1[C@@H](C)O (single isomer, unassigned) [Compound 32]	54	32	2500	10	
C=CC(=O)N(C)Cc1cc(-c2ccc(OC(F)(F)F)cc2)c2c(c1[C@H](O)CO)CCO2 (single isomer, unassigned) [Compound 55]	7.2	20	240		4.4
C=CC(=O)NCc1cc(-c2ccc(OC(F)(F)F)cc2)c2ncoc2c1[C@@H](O)CO (single isomer, unassigned) [Compound 106]	180	180	1000		24
C=CC(=O)NCc1cc(-c2ccc(C(F)(F)F)cc2)c2ncoc2c1[C@@H](O)CO (single isomer, unassigned) [Compound 110]	260	140	970		47
C=C(F)C(=O)N1CC(c2cc(-c3ccc(OC(F)(F)F)cc3)c3ncn(C)c3c2)C1 [Compound 145, 2-Fluoro-1-(3-(1-methyl-4-(4-(trifluoromethoxy)phenyl)-1H-benzo[d]imidazol-6-yl)azetidin-1-yl)prop-2-en-1-one]	12	6.9	240		19
C=CC(=O)NCc1cc(-c2ccc(OC(F)(F)F)cc2)c2c(c1-n1ccnc1)CCO2 [Compound 23, N-((4-(1H-Imidazol-1-yl)-7-(4-(trifluoromethoxy)phenyl)-2,3-dihydrobenzofuran-5-yl)methyl)acrylamide]	160	690	3900		370
C=CC(=O)NCc1cc(-c2ccc(OC(F)(F)F)cc2)c2ncoc2c1[C@H](O)CO (single isomer, unassigned) [Compound 105]	90	130	74		30
C=CC(=O)NCc1cc(-c2ccc(OC(F)(F)F)cc2)c2cccnc2c1[C@H](O)CO (single isomer, unassigned) [Compound 45]	380	48	1200		18
C=CC(=O)N(C)Cc1cc(-c2ccc(OC(F)(F)F)cc2)c2ncccc2c1[C@@H](O)CO (single isomer, unassigned) [Compound 52]	43	25	79		46
C=CC(=O)NCc1cc(-c2ccc(OC(F)(F)F)cc2)c2nccn2c1 [Compound 37, N-[[8-[4-(trifluoromethoxy)phenyl]imidazo[1,2-a]pyridin-6-yl]methyl]prop-2-enamide]	82	100	230		960
C=CC(=O)NCc1nc(C23CC(C(C)C)(C2)C3)c2ncsc2n1 [Compound 102, N-((7-(3-Isopropylbicyclo[1.1.1]pentan-1-yl)thiazolo[5,4-d]pyrimidin-5-yl)methyl)acrylamide]	23	120	110		310
C=C(F)C(=O)N1CC(c2nc(-c3ccc(OC(F)(F)F)cc3)c3ncn(C(F)F)c3n2)C1 [Compound 132, 1-(3-(9-(Difluoromethyl)-6-(4-(trifluoromethoxy)phenyl)-9H-purin-2-yl)azetidin-1-yl)-2-fluoroprop-2-en-1-one]	24	6.9	100		150
C=CC(=O)N(C)CCc1cc(-c2ccc(OC(F)(F)F)cc2)c2ncn(C)c2c1C#N [Compound 144, N-(2-(7-Cyano-1-methyl-4-(4-(trifluoromethoxy)phenyl)-1H-benzo[d]imidazol-6-yl)ethyl)-N-methylacrylamide]	23	94	1300		39
